Measured values published in patent publication US20240350643A1, “PROTEIN DEGRADATION AGENT” (SUZHOU KINTOR PHARMACEUTICALS, INC., priority 2021, published 2024).
Read-outs that look alike come from different tables or passages of the source.

Assays:
c-Myc protein = molecular target: T1, c-Myc protein (Homo sapiens, UniProt P01106); experiment: Ability of compounds to degrade c-Myc protein in HL60 cells (ELISA); format: cell-based; conditions: HL-60, 1 μM compound, 24 h, read-out: HL60 cells Protein degradation rate (1 μM)
T1 construct: endogenous in cells; host or cells: HL60 cells
T1 sequence (P01106 whole entry): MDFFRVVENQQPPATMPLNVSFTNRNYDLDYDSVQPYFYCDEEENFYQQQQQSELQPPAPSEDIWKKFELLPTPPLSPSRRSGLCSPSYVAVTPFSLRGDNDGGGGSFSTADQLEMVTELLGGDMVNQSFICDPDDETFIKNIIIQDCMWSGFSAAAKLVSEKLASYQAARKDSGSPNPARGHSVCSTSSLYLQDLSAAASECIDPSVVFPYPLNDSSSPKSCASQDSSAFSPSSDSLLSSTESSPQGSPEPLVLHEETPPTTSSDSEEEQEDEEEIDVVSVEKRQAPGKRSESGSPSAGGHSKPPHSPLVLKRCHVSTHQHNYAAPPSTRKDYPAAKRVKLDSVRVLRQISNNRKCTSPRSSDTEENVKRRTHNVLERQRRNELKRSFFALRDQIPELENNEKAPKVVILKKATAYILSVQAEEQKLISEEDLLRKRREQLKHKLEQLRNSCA
Experimental: I Activity test 1: Ability of compounds to degrade c-Myc protein in HL60 cells:
HL60 cells in the exponential growth phase were centrifuged, diluted with fresh culture mediums to 6×10^4 cells/100 μL and plated into a 96-well plate at 100 μL per well.
Preparation of test compounds: the compounds were weighed and diluted with DMSO to a 10 mM stock solution for later use. According to test requirements, drugs were diluted with cell culture mediums, with ten-fold dilutions starting from 10 μM, to achieve 3 concentration gradients: 10 μM, 1 μM and 100 NM; and finally, 1 μL of the drugs (DMSO content: 0.01%) were added to each well. For the blank control group, DMSO was also diluted with cell culture mediums, and finally, 1 μL of the control reagent (DMSO content: 0.01%) was added to each well.
3. Effect of drugs on c-Myc in cells as determined by ELISA
After 24 h of drug action, the culture mediums were removed, and the cells were washed once with ice-cold 1× PBS. PBS was removed, and 100 μL of ice-cold 1× Cell Lysis Buffer plus 1 mM phenylmethylsulfonyl fluoride (PMSF) was added to each well. The plate was incubated on ice for 20 min and centrifuged at 4000 RPM at 4° C. for 10 min for later use.
4. Reagent and antibody preparation in ELISA kit 1× wash buffer • 1). 16 mL of ELISA wash buffer concentrate (25×) was diluted with 384 mL of deionized water or distilled water, labeled as 1× Wash Buffer. • 2). The concentrate and 1× Wash Buffer were stored in the refrigerator. The diluted buffer was used within 14 days.
The cell extraction buffer contains 10 mM Tris (pH 7.4), 100 mM NaCl, 1 mM EDTA, 1 mM EGTA, 1 mM NaF, 20 mM Na4P2O7 2 mM Na3VO4. 1% Triton™ ×-100, 10% glycerol, 0.1% SDS and 0.5% deoxycholate. Immediately before use, PMSF (0.3 M stock solution in DMSO) was added to the buffer to a final concentration of 1 mM.
Standard curve configuration: The standard liquid was diluted using glass or plastic tubes. • 1). Huc-Myc (total) standard liquid (Invitrogen, KH02041) was reconstituted with a standard dilution to 1000 pg/mL. Refer to the standard vial label for instructions. The contents were gently swirled or mixed and then allowed to stand for 10 minutes to ensure complete reconstitution, labeled as 1,000 pg/mL human c-Myc. The standard liquid was used within 1 hour after reconstitution. • 2). 250 μL of standard dilution buffers were added to 7 test tubes respectively labeled 500, 250, 125, 62.5, 31.25, 15,63 and 0 pg/mL. • 3). 250 μL of the 1000 pg/ml standard stock solution was added to the first EP tube to a concentration of 500 pg/mL, vortexed and mixed evenly. 250 μL of the resulting mixture was further pipetted and added to the second EP tube to a concentration of 250 pg/mL. Serial dilutions were performed until the sixth EP tube with a concentration of 15.63 pg/mL. Dilution was not performed on the last EP tube. • 4). The remaining reconstituted standard liquid should be discarded, or aliquoted and frozen at −80° C. for further use. Standards can be frozen and thawed only once without losing immunoreactivity.
1× anti-rabbit IgG HRP solution: 1× anti-rabbit IgG HRP solution was prepared within 15 minutes of use. The anti-rabbit IgG HRP (100×) contained 50% viscous glycerol. To ensure accurate dilutions, the following operations were carried out: 1 For each 8-well test strip used in the test, 10 μl, of the anti-rabbit IgG -IRP (100×) solution was pipetted, wherein the pipette tip was wiped with clean absorbent paper to remove excess solutions, and then the solution was dispensed into a test tube containing 1 mL of HRP diluent and mixed thoroughly. 2. The unused anti-rabbit IgG HRP (100×) was placed in the refrigerator for storage.
50 μL of the standard liquid was added to the appropriate wells and not added to the blank control well. Except for the blank control well, 50 μL of Hu c-Myc (total) detection antibody solution was added to each well and mixed by tapping the side face of the plate. […]

HL60 cells = experiment: Anti-proliferation ability of compounds on HL60 cells (CTG); format: cell-based, human; conditions: 3 days, CellTiter-Glo, read-out: HL60 cells Proliferation inhibitory activity
Experimental: II. Activity test 2: Anti-proliferation ability of compounds on HL60 cells: 1 Cell plating
HL60 cells in the logarithmic growth phase were counted and plated evenly in a 96-well transparent bottom white plate at 20000 cells per well and 100 μL per well.
A certain amount of the compounds was weighed and diluted with DMSO to a 10 mM stock solution. The culture mediums corresponding to the cells were taken, and the drugs were diluted to the concentration required by the test, shaken gently and mixed evenly. 50 μl of the gradient dilution of the diluted compound was added to each well of the plated cells, and 50 μL of 0.1% DMSO was added to the control group. The plate was shaken gently, mixed evenly and incubated in a cell culture incubator for 3 days.
• 3.1 The CellTiter-GLo™ (CTG) reagent was taken in advance from the −20° C. refrigerator and equilibrated to room temperature in the dark (white bottle+brown bottle, 1:1 mixing evenly into the brown bottle, for later use). • 3.2 The 96-well plate was taken out and inspected under a microscope for growth situation. • 3.3 The bottom of the 96-well plate was tagged with white paper, and then the plate was wrapped with tin foil paper, shaken at 37° C. at 300 r for 10 min and mixed evenly. • 3.4 50 ul of CTG detection reagent was added to each well, Luminescence signal was detected using a microplate reader, and the inhibition rate was calculated. IC50 values of the compounds were calculated by XLfit software to evaluate the proliferation inhibitory activity on HL60 cells.

SMILES | inhibition at 1 µM (c-Myc protein) [%] | IC50 (HL60 cells; Homo sapiens, HL-60, 72 h) [nM] | IC50 (HL60 cells) [nM]
O=C(Cn1c2ccccc2c2cccnc21)NCc1ncc(CNC(=O)c2ccc3c(c2)C(=O)N(C2CCC(=O)NC2=O)C3=O)cn1 (centres unmarked) [A132] | 10 to 30 | 4210 ± 659 | 
O=C(Cc1nccc2ccccc12)NCc1ccc(CNC(=O)c2ccc3c(c2)C(=O)N(C2CCC(=O)NC2=O)C3=O)cc1 (centres unmarked) [A33] | 60 to 90 | 9.1 ± 0.3 | 
O=C(Cc1nccc2ccccc12)NCc1ccc(CNC(=O)c2ccc3c(c2)CN(C2CCC(=O)NC2=O)C3=O)c(F)c1 (centres unmarked) [A158] | 30 to 60 | 3.3 ± 0.3 | 
COc1cc(CNC(=O)c2ccc3c(c2)C(=O)N(C2CCC(=O)NC2=O)C3=O)ccc1CNC(=O)Cc1cccc2ccccc12 (centres unmarked) [A115] | 60 to 90 | 8.6 ± 1.8 | 
N#Cc1cccc2c3ccccc3n(CC(=O)NCc3ccc(CNC(=O)c4ccc5c(c4)CN(C4CCC(=O)NC4=O)C5=O)cc3)c12 (centres unmarked) [A229] |  | < 3.04 | 
CN(CCc1cccc2ccccc12)Cc1ccc(CNC(=O)c2ccc3c(c2)C(=O)N(C2CCC(=O)NC2=O)C3=O)cc1 (centres unmarked) [A83] | 30 to 60 | 27.2 ± 7.6 | 
O=C(Cc1cccc2ccccc12)NCCCCCCCCCc1ccc2c(c1)C(=O)N(C1CCC(=O)NC1=O)C2=O (centres unmarked) [A19] | 60 to 90 | 585 ± 79.8 | 
O=C(Cn1c2ccccc2c2cccnc21)NCc1ccc(C2(NC(=O)c3ccc4c(c3)CN(C3CCC(=O)NC3=O)C4=O)CC2)cc1F (centres unmarked) [A216] |  | 3.5 ± 1.1 | 
O=C1CCC(N2C(=O)c3ccc(C(=O)NCc4ccc(CN(CCn5c6ccccc6c6cccnc65)Cc5ccccc5)cc4)cc3C2=O)C(=O)N1 (centres unmarked) [A97] | 60 to 90 | 169 ± 50.7 | 
O=C(Cn1c2ccccc2c2cccnc21)NCc1ccc(CNC(=O)c2ccc3c(c2)CN(C2CCC(=O)NC2=O)C3=O)cc1OC(F)(F)F (centres unmarked) [A208] | 60 to 90 | 0.5 | 
O=C(Cn1c2ccccc2c2ccncc21)NC[C@H]1CC[C@H](CNC(=O)c2ccc3c(c2)C(=O)N(C2CCC(=O)NC2=O)C3=O)CC1 (some centres unmarked) [A25] | 30 to 60 | 270 ± 126 | 
CC(C)(C)C(=O)OCN1C(=O)CCC(N2Cc3cc(C(=O)NCc4ccc(CNC(=O)Cn5c6ccccc6c6cccnc65)cc4)ccc3C2=O)C1=O (centres unmarked) [A226] |  | 1 | 
N#Cc1cc(CNC(=O)Cn2c3ccccc3c3cccnc32)ccc1CC(=O)Nc1ccc2c(c1)CN(C1CCC(=O)NC1=O)C2=O (centres unmarked) [A211] |  | 13.3 ± 1 | 
O=C(CN1CCCc2cccnc21)NCc1ccc(CNC(=O)c2ccc3c(c2)CN(C2CCC(=O)NC2=O)C3=O)cc1 (centres unmarked) [A202] |  | 6.4 ± 2.7 | 
O=C(Cn1c2ccccc2c2cccnc21)NCc1ccc(CC(=O)Nc2ccc3c(c2F)CN(C2CCC(=O)NC2=O)C3=O)c(C(F)(F)F)c1 (centres unmarked) [A218] |  | 3.3 ± 0.8 | 
O=C(Cn1c2ccccc2c2cccnc21)NCc1ccc(CC(=O)Nc2cc3c(cc2F)C(=O)N(C2CCC(=O)NC2=O)C3)c(C(F)(F)F)c1 (centres unmarked) [A219] |  | 7.8 ± 2 | 
Cc1cc(CNC(=O)Cn2c3ccccc3c3cccnc32)ccc1CNC(=O)c1ccc2c(c1)CN(C1CCC(=O)NC1=O)C2=O (centres unmarked) [A217] |  | 0.6 | 
O=C(Cn1c2ccccc2c2cccnc21)NCc1ccc(C2(NC(=O)c3ccc4c(c3)CN(C3CCC(=O)NC3=O)C4=O)CC2)cc1 (centres unmarked) [A213] |  | 5.4 ± 1.9 | 

SMILES | inhibition at 1 µM (c-Myc protein) [%] | IC50 (HL60 cells; Homo sapiens, HL-60, 72 h) [nM] | IC50 (HL60 cells) [nM]
O=C1CCC(N2Cc3cc(C(=O)NCc4ccc(CN(CCO)CCc5ccc(Cl)c(Cl)c5)cc4)ccc3C2=O)C(=O)N1 (centres unmarked) [A233] |  | < 3.04 | 
O=C(Cn1c2ccccc2c2cccnc21)NCc1ccc(CNC(=O)c2ccc3c(c2)CN(C2CCC(=O)NC2=O)C3=O)c(C(F)(F)F)c1 (centres unmarked) [A209] |  |  | 0.9
O=C(Cn1c2ccccc2c2cccnc21)NCc1ccc(CNC(=O)c2ccc3c(c2F)CN(C2CCC(=O)NC2=O)C3=O)cc1 (centres unmarked) [A223] |  | 0.7 ± 0.4 | 
O=C(Cn1c2ccccc2c2cccnc21)NCc1ccc(CNC(=O)c2cc3c(cc2F)C(=O)N(C2CCC(=O)NC2=O)C3)cc1 (centres unmarked) [A222] |  | 0.6 ± 0.2 | 
O=C1CCC(N2Cc3cc(C(=O)NCc4ccc(CN(CCc5cccc6ccccc56)C(=O)CO)cc4)ccc3C2=O)C(=O)N1 (centres unmarked) [A232] |  | 0.54 | 
N#Cc1cc(CNC(=O)Cn2c3ccccc3c3cccnc32)ccc1CNC(=O)c1ccc2c(c1)CN(C1CCC(=O)NC1=O)C2=O (centres unmarked) [A210] |  | 3.6 ± 1.8 | 
O=C(Cn1c2ccccc2c2cccnc21)NCc1ccc(CNC(=O)c2ccc3c(c2)CN(C2CCC(=O)NC2=O)C3=O)c(OC(F)(F)F)c1 (centres unmarked) [A207] |  | 0.2 | 
O=C1CCC(N2Cc3cc(C(=O)NCc4ccc(CN(CCO)CCc5cccc6ccccc56)cc4)ccc3C2=O)C(=O)N1 (centres unmarked) [A234] |  | 0.71 ± 0.04 | 
O=C(Cn1c2ccccc2c2ccncc21)NCCCCCCNC(=O)c1ccc2c(c1)C(=O)N(C1CCC(=O)NC1=O)C2=O (centres unmarked) [A3] | 30 to 60 |  | 
O=C1CCC(N2Cc3cc(C(=O)NCc4ccc(CN(CCc5cccc6ccccc56)CCc5cccc6ccccc56)cc4)ccc3C2=O)C(=O)N1 (centres unmarked) [A230] |  | 11.8 ± 1.2 | 
O=C1CCC(N2Cc3cc(C(=O)NCc4ccc(C5(NC(=O)Cn6c7ccccc7c7cccnc76)CC5)cc4)ccc3C2=O)C(=O)N1 (centres unmarked) [A212] |  | 1.5 ± 0.1 | 
O=C(Cn1c2ccccc2c2cccc(CO)c21)NCc1ccc(CNC(=O)c2ccc3c(c2)C(=O)N(C2CCC(=O)NC2=O)C3=O)cc1 (centres unmarked) [A236] |  | 6.3 ± 1.2 | 
CN(CCn1c2ccccc2c2cccnc21)Cc1ccc(CC(=O)Nc2ccc3c(c2)CN(C2CCC(=O)NC2=O)C3=O)cc1 (centres unmarked) [A206] |  | 0.5 ± 0.2 | 
O=C1CCC(N2Cc3cc(C(=O)NCc4ccc(CNCCc5cccc6ccccc56)cc4)ccc3C2=O)C(=O)N1 (centres unmarked) [A231] |  | < 3.04 | 
O=C1CCC(N2Cc3cc(C(=O)NC[C@H]4CC[C@H](NC(=O)NCc5cccc6ccccc56)CC4)ccc3C2=O)C(=O)N1 (some centres unmarked) [A198] |  | 17.8 ± 1.9 | 
O=C1CCC(N2Cc3cc(C(=O)NCc4ccc(C5(NC(=O)Cn6c7ccccc7c7cccnc76)CC5)cn4)ccc3C2=O)C(=O)N1 (centres unmarked) [A214] |  | 5.2 ± 1.4 | 
O=C(Cn1c2ccccc2c2cccnc21)NCc1ccc(C2(NC(=O)c3ccc4c(c3)CN(C3CCC(=O)NC3=O)C4=O)CC2)cn1 (centres unmarked) [A215] |  | 186 ± 67 | 
